Experimental data taken from US20240116951A1, “HETEROCYCLIC COMPOUNDS AND USES THEREOF” (Kumquat Biosciences Inc., priority 2022, published 2024).

What was measured:
Type in all cases: binding
KRAS G12S = target: T1, KRAS G12S (Homo sapiens, UniProt P01116, G12S); experiment: HTRF assay of K-Ras G12S interaction with SOS1 (PPI-HTRF); conditions: 5 nM KRAS G12S, read-out: PPI-HTRF-5 nM KRAS G12S
T1 construct: made in house; host or cells: E. coli, e.g. BL21 (DE3)
Text: (§1) This assay can be also used to assess a selective inhibition or reduction of signaling output of a mutant Ras protein relative to a wildtype, or relative to a different mutant Ras protein. For example, the equilibrium interaction of wildtype Kras or K-Ras mutant (e.g., wildtype or a mutant thereof including those mentioned in Example 4) with SOS1 (e.g., hSOS1) can be assessed as a proxy or an indication for a subject compound's ability to bind and inhibit Ras protein. HTRF assay detects from (i) a fluorescence resonance energy transfer (FRET) donor (e.g., antiGST-Europium) that is bound to GST-tagged K-Ras mutant to (ii) a FRET acceptor (e.g., anti-6His-XL665) bound to a His-tagged hSOS1.
(§2) The assay buffer can contain ˜5 mM HEPES pH 7.4, ˜150 mM NaCl, ˜1 mM DTT, 0.05% BSA and 0.0025% (v/v) Igepal. A Ras working solution is prepared in an assay buffer containing typically a suitable amount of the protein construct (e.g., GST-tagged K-Ras mutant) and the FRET donor (e.g., antiGST-Eu(K) from Cisbio, France). A SOS1 working solution is prepared in an assay buffer containing suitable amount of the protein construct (e.g., His-hSOS1) and the FRET acceptor (e.g., anti-6His-XL665 from Cisbio, France). A suitable amount of the protein construct will depend on the range of activity or range of IC50 values being detected or under investigation. For detecting IC50 within a range of 500 nM, the protein constructs of the same range of molarity can be utilized. […] A fixed volume of DMSO with or without test compound is transferred into a 384-well plate. Ras working solution is added to all wells of the test plate. SOS1 working solution is added to all wells except for those that are subsequently filled the inhibitor control solution. Upon incubation for about 10 minutes or longer, the fluorescence is measured with a M1000Pro plate reader (Tecan) using HTRF detection (excitation 337 nm, emission 1: 620 nm, emission 2: 665 nm). Compounds are tested in duplicates at different concentrations (for example, 10 μM, 2.5 μM, 0.63 μM, 0.16 μM, 0.04 μM, 0.01 μM test compound). The ratiometric data (i.e., emission 2 divided by emission 1) is used to calculate IC50 values against Ras using GraphPad Prism (GraphPad software). Following this general procedure, samples were tested with or without a subject compound disclosed herein including compounds exemplified in Table 1 to assess their abilities to inhibit a mutant K-Ras relative to another mutant K-Ras or wildtype K-Ras. Signaling output measured in terms of IC50 values can be obtained, a ratio of IC50 against one mutant relative to another mutant can be calculated. For instance, a selective reduction of K-Ras G12D signaling output can be evidenced by a ratio greater than one. In particular, a selective reduction of K-Ras G12D signaling relative to K-Ras WT signaling is evidenced as the ratio of IC50 (against K-Ras WT) to IC50 (against K-Ras G12D) is greater than 1.

KRAS G12D = target: T2, KRAS G12D (Homo sapiens, UniProt P01116, G12D); experiment: HTRF assay of K-Ras G12D interaction with SOS1 (PPI-HTRF); conditions: HTRF, 5 nM KRAS G12D; read-out: PPI-HTRF-5 nM KRAS G12D
T2 construct: made in house; host or cells: E. coli, e.g. BL21 (DE3)
T2 sequence (P01116 1-188 isoform P01116-2 G12D): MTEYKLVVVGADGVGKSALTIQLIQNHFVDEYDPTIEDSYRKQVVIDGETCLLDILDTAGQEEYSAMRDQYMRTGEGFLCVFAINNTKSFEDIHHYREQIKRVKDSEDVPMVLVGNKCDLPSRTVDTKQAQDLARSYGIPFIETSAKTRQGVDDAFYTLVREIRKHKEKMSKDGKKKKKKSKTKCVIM
Text: as §1, §2

KRAS WT = target: T3, KRAS WT (Homo sapiens, UniProt P01116); experiment: HTRF assay of wildtype K-Ras interaction with SOS1 (PPI-HTRF); conditions: HTRF, 5 nM KRAS WT; read-out: PPI-HTRF-5 nM KRAS WT
T3 construct: made in house; host or cells: E. coli, e.g. BL21 (DE3)
T3 sequence (P01116 1-188 isoform P01116-2): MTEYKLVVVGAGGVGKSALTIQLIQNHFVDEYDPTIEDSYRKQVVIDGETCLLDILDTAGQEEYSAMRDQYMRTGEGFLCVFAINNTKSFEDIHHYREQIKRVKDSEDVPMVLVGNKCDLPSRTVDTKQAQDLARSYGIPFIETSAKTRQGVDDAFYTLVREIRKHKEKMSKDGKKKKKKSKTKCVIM
Text: as §1, §2

T1 sequence (P01116 1-188 isoform P01116-2 G12S): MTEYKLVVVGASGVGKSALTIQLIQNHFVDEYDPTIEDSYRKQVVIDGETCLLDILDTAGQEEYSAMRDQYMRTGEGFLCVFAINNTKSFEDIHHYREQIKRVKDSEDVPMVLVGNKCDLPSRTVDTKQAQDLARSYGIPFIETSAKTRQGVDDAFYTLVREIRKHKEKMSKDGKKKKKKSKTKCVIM

Row | Structure (SMILES) | IC50 (KRAS G12S) | IC50 (KRAS G12D) | IC50 (KRAS WT)
1 | N#Cc1c(N)sc2c(F)ccc(-c3c(Cl)cc4c(N5CCC6(C5)NCC6(F)F)nc(OC[C@@]56CCCN5C[C@H](F)C6)nc4c3F)c12 (stereo partly drawn) [Compound 232, 2-amino-4-(6-chloro-4-(3,3-difluoro-1,6-diazaspiro[3.4]octan-6-yl)-8-fluoro-2-(((2R,7aS)-2-fluorotetrahydro-1H-pyrrolizin-7a(5H)-yl)methoxy)quinazolin-7-yl)-7-fluorobenzo[b]thiophene-3-carbonitrile] | < 5 µM | < 5 µM | < 5 µM
2 | C[C@H]1N(c2nc(OC[C@@]34CCCN3C[C@H](F)C4)nc3c(F)c(-c4ccc(F)c5sc(N)c(C#N)c45)c(Cl)cc23)CC[C@]12CCN2C(=O)n1cnc(Cl)n1 [Compound 229, 2-amino-4-(6-chloro-4-((4S,5R)-1-(3-chloro-1H-1,2,4-triazole-1-carbonyl)-5-methyl-1,6-diazaspiro[3.4]octan-6-yl)-8-fluoro-2-(((2R,7aS)-2-fluorotetrahydro-1H-pyrrolizin-7a(5H)-yl)methoxy)quinazolin-7-yl)-7-fluorobenzo[b]thiophene-3-carbonitrile] | < 5 µM | < 5 µM | < 5 µM
3 | N#Cc1c(N)sc2c(F)ccc(-c3c(Cl)cc4c(N5CCC6(CCN6C(=O)[C@@H]6N[C@H]6C6CC6)C5)nc(OC[C@@]56CCCN5C[C@H](F)C6)nc4c3F)c12 (stereo partly drawn) [Compound 296, 2-amino-4-(6-chloro-4-(1-((2R,3S)-3-cyclopropylaziridine-2-carbonyl)-1,6-diazaspiro[3.4]octan-6-yl)-8-fluoro-2-(((2R,7aS)-2-fluorotetrahydro-1H-pyrrolizin-7a(5H)-yl)methoxy)quinazolin-7-yl)-7-fluorobenzo[b]thiophene-3-carbonitrile] | < 5 µM | < 5 µM | < 5 µM
4 | N#Cc1c(N)sc2c(F)ccc(-c3c(Cl)cc4c(N5CC[C@@]6(CCN6C(=O)n6cnc(CCl)n6)C5)nc(OC[C@@]56CCCN5C[C@H](F)C6)nc4c3F)c12 [Compound 322, 2-amino-4-(6-chloro-4-((R)-1-(3-(chloromethyl)-1H-1,2,4-triazole-1-carbonyl)-1,6-diazaspiro[3.4]octan-6-yl)-8-fluoro-2-(((2R,7aS)-2-fluorotetrahydro-1H-pyrrolizin-7a(5H)-yl)methoxy)quinazolin-7-yl)-7-fluorobenzo[b]thiophene-3-carbonitrile] | < 5 µM | < 5 µM | < 5 µM
5 | N#Cc1c(N)sc2c(F)ccc(-c3c(Cl)cc4c(N5CC[C@@]6(CCN6C(=O)n6cnc(C(F)F)n6)C5)nc(OC[C@@]56CCCN5C[C@H](F)C6)nc4c3F)c12 (atropisomer, axis not shown; (aS)) [Compound 278, 2-amino-4-((R)-6-chloro-4-((R)-1-(3-(difluoromethyl)-1H-1,2,4-triazole-1-carbonyl)-1,6-diazaspiro[3.4]octan-6-yl)-8-fluoro-2-(((2R,7aS)-2-fluorotetrahydro-1H-pyrrolizin-7a(5H)-yl)methoxy)quinazolin-7-yl)-7-fluorobenzo[b]thiophene-3-carbonitrile] | < 5 µM | < 5 µM | < 5 µM
6 | Cc1nc(C)n(C(=O)N2CC[C@]23CCN(c2nc(OC[C@@]45CCCN4C[C@H](F)C5)nc4c(F)c(-c5ccc(F)c6sc(N)c(C#N)c56)c(Cl)cc24)C3)n1 [Compound 306, 2-amino-4-(6-chloro-4-((S)-1-(3,5-dimethyl-1H-1,2,4-triazole-1-carbonyl)-1,6-diazaspiro[3.4]octan-6-yl)-8-fluoro-2-(((2R,7aS)-2-fluorotetrahydro-1H-pyrrolizin-7a(5H)-yl)methoxy)quinazolin-7-yl)-7-fluorobenzo[b]thiophene-3-carbonitrile] | < 5 µM | < 5 µM | < 5 µM
7 | CN1CCC[C@H]1COc1nc(N2CCC3(CCN3C(=O)n3cncn3)C2)c2cc(Cl)c(-c3ccc(F)c4sc(N)c(C#N)c34)c(F)c2n1 (stereo partly drawn) [Compound 319, 4-(4-(1-(1H-1,2,4-triazole-1-carbonyl)-1,6-diazaspiro[3.4]octan-6-yl)-6-chloro-8-fluoro-2-(((S)-1-methylpyrrolidin-2-yl)methoxy)quinazolin-7-yl)-2-amino-7-fluorobenzo[b]thiophene-3-carbonitrile] | < 5 µM | < 5 µM | < 5 µM
8 | N#Cc1c(N)sc2c(F)ccc(-c3c(Cl)cc4c(N5CCC6(C5)N(C(=O)C5CC5(F)F)CC6(F)F)nc(OC[C@@]56CCCN5C[C@H](F)C6)nc4c3F)c12 (stereo partly drawn) [Compound 228, 2-amino-4-(6-chloro-4-(1-(2,2-difluorocyclopropane-1-carbonyl)-3,3-difluoro-1,6-diazaspiro[3.4]octan-6-yl)-8-fluoro-2-(((2R,7aS)-2-fluorotetrahydro-1H-pyrrolizin-7a(5H)-yl)methoxy)quinazolin-7-yl)-7-fluorobenzo[b]thiophene-3-carbonitrile] | < 5 µM | < 5 µM | < 5 µM
9 | Cc1cc(N)c(F)c(-c2c(Cl)cc3c(N4CCC5(CCN5C(=O)n5cncn5)C4)nc(OC[C@@]45CCCN4C[C@H](F)C5)nc3c2F)c1C(F)(F)F (stereo partly drawn) [Compound 279, (6-(7-(3-amino-2-fluoro-5-methyl-6-(trifluoromethyl)phenyl)-6-chloro-8-fluoro-2-(((2R,7aS)-2-fluorotetrahydro-1H-pyrrolizin-7a(5H)-yl)methoxy)quinazolin-4-yl)-1,6-diazaspiro[3.4]octan-1-yl)(1H-1,2,4-triazol-1-yl)methanone] | > 5 µM | > 5 µM | > 5 µM
10 | Nc1nc2c(-c3c(Cl)cc4c(N5CCCC6(CC5)CCN6C=O)nc(OC[C@@]56CCCN5C[C@H](F)C6)nc4c3F)ccc(F)c2s1 (stereo partly drawn) [Compound 233, 7-(7-(2-amino-7-fluorobenzo[d]thiazol-4-yl)-6-chloro-8-fluoro-2-(((2R,7aS)-2-fluorotetrahydro-1H-pyrrolizin-7a(5H)-yl)methoxy)quinazolin-4-yl)-1,7-diazaspiro[3.6]decane-1-carbaldehyde] | < 5 µM | < 5 µM | < 5 µM
11 | Nc1nc2c(-c3c(Cl)cc4c(N5CC6(CCN6C(=O)n6cncn6)C5)nc(OC[C@@]56CCCN5C[C@H](F)C6)nc4c3F)ccc(F)c2s1 [Compound 273, (6-(7-(2-amino-7-fluorobenzo[d]thiazol-4-yl)-6-chloro-8-fluoro-2-(((2R,7aS)-2-fluorotetrahydro-1H-pyrrolizin-7a(5H)-yl)methoxy)quinazolin-4-yl)-1,6-diazaspiro[3.3]heptan-1-yl)(1H-1,2,4-triazol-1-yl)methanone] | < 5 µM | < 5 µM | < 5 µM
12 | C#Cc1c(F)ccc2cc(O)cc(-c3ncc4c(N5CCC6(CCN6C(=O)n6cncn6)C5)nc(O[C@@H](C)[C@@H]5CCCN5C)nc4c3F)c12 (stereo partly drawn) [Compound 256, (6-(7-(8-ethynyl-7-fluoro-3-hydroxynaphthalen-1-yl)-8-fluoro-2-((S)-1-((S)-1-methylpyrrolidin-2-yl)ethoxy)pyrido[4,3-d]pyrimidin-4-yl)-1,6-diazaspiro[3.4]octan-1-yl)(1H-1,2,4-triazol-1-yl)methanone] | < 5 µM | > 5 µM | > 5 µM
13 | Cc1nc(C)n(C(=O)N2CCC23CCN(c2nc(OC[C@@]45CCCN4C[C@H](F)C5)nc4c(F)c(-c5ccc(F)c6sc(N)c(C#N)c56)c(Cl)cc24)C3)n1 (stereo partly drawn) [Compound 226, 2-amino-4-(6-chloro-4-(1-(3,5-dimethyl-1H-1,2,4-triazole-1-carbonyl)-1,6-diazaspiro[3.4]octan-6-yl)-8-fluoro-2-(((2R,7aS)-2-fluorotetrahydro-1H-pyrrolizin-7a(5H)-yl)methoxy)quinazolin-7-yl)-7-fluorobenzo[b]thiophene-3-carbonitrile] | < 5 µM | < 5 µM | < 5 µM
